In patent US5228957A, “Separation of methyl T-butyl ether from close boiling C5 hydrocarbons by extractive distillation” (priority 1993, dated 1993):
Counter-ions that a name gives are not always drawn. Like-named read-outs stand apart in the source and are kept apart here.

What was measured:
Assay type in all cases: physicochemical
[1] = Extractive distillation agent separating methyl t-butyl ether from 1-pentene (vapor-liquid equilibrium still)
[2] = Extractive distillation agent separating methyl t-butyl ether from n-pentane-cyclopentane mixtures (vapor-liquid equilibrium still)
[3] = Extractive distillation agent separating methyl t-butyl ether from cyclopentane (vapor-liquid equilibrium still); details: cyclopentane to methyl t-butyl ether, with agent
Description: The data in Tables 2-6 was obtained in a vapor-liquid equilibrium still.

[4] = Relative volatility of methyl t-butyl ether from close boiling hydrocarbons, no agent (vapor-liquid equilibrium still); details: hydrocarbon to methyl t-butyl ether
Description: I have discovered that certain organic compounds will effectively increase the relative volatility between methyl t-butyl ether and close boiling hydrocarbons when employed as the agent in extractive distillation. The data in Tables 2-6 was obtained in a vapor-liquid equilibrium still.

[5] = 1-pentene to methyl t-butyl ether, with agent
[6] = cyclopentane to methyl t-butyl ether, n-pentane-cyclopentane mixture, with agent
[7] = n-pentane to methyl t-butyl ether, n-pentane-cyclopentane mixture, with agent

SMILES	Relative Volatility CyP/MTBE [2, 6]	Relative Volatility Pnt/MTBE [2, 7]	further results
CC(=O)CCC(C)C [Methyl isoamyl ketone]	1.7	2.8	Relative Volatility [1, 5]: 2.6
CC(=O)c1ccccc1 [Acetophenone]	1.7	1.7	Relative Volatility [3]: 1.6
CN(C)C=O [Dimethylformamide]	–	–	Relative Volatility [1]: 3.0; Relative Volatility CyP/MTBE [2]: 2.3; Relative Volatility Pnt/MTBE [2]: 4.7; Relative Volatility [3]: 2.0
CCOC(=O)OCC [Diethyl carbonate]	1.8	3.1	–
CC(C)[N+](=O)[O-] [2-Nitropropane]	2.2	3.8	–
CCC[N+](=O)[O-] [1-Nitropropane]	2.8	5.2	–
COCC(C)OC(C)=O (stereo not shown) [1-Methoxy-2-propanol acetate]	1.9	3.3	Relative Volatility [1, 5]: 3.5
CC(O)COc1ccccc1 (stereo not shown) [Propylene glycol phenyl ether]	2.0	4.2	Relative Volatility [1, 5]: 3.2
C=CCCC [1-Pentene]	–	–	Relative Volatility [4]: 1.7; Relative Volatility ([4]; listed as 1-pentene): less than 1.7
CCCOC(C)=O [n-Propyl acetate]	1.8	2.6	–
C[S+](C)[O-] [Dimethylsulfoxide]	2.7	2.8	Relative Volatility [1, 5]: 3.9; Relative Volatility [3]: 1.8
CCOC(=O)CC(C)=O [Ethyl acetoacetate]	1.9	4.2	–
COC(=O)c1ccccc1O [Methyl salicylate]	1.6	1.9	–
CC[N+](=O)[O-] [Nitroethane]	–	–	Relative Volatility [1]: 3.0; Relative Volatility CyP/MTBE [2]: 2.9; Relative Volatility Pnt/MTBE [2]: 5.2
CC(=O)OC(C)C [Isopropyl acetate]	1.8	3.1	–
CCOC(=O)/C=C\C(=O)OCC [Diethyl maleate]	1.8	3.4	–

SMILES	Relative Volatility CyP/MTBE [2, 6]	Relative Volatility Pnt/MTBE [2, 7]	further results
CC(=O)OCC(COC(C)=O)OC(C)=O [Triacetin]	1.9	3.6	–
O=S1(=O)CCCC1 [Sulfolane]	3.6	2.4	Relative Volatility [1]: 4.4; Relative Volatility [3]: 3.6
CCCCCCOC=O [n-Hexyl formate]	1.6	1.6	–
CN1CCCC1=O [1-Methyl-2-pyrrolidinone]	1.8	3.9	Relative Volatility [3]: 1.8
C[N+](=O)[O-] [Nitromethane]	–	–	Relative Volatility CyP/MTBE [2]: 1.6; Relative Volatility Pnt/MTBE [2]: 1.5
CC(C)CC(=O)CC(C)C [Diisobutyl ketone]	1.5	2.5	–
CC(C)(C)O [t-Butanol]	–	–	Relative Volatility [3]: 2.2
CC(=O)CC(C)=O [2,4-Pentanedione]	1.9	3.4	–
CCOC(=O)CC(=O)OCC [Diethyl malonate]	2.0	3.7	Relative Volatility [1, 5]: 3.1
CC(=O)OCCOC(C)=O [Ethylene glycol diacetate]	1.8	3.3	Relative Volatility [1, 5]: 5.5
CCCCC [n-Pentane]	–	–	Relative Volatility [4]: 1.6; Relative Volatility ([4]; listed as n-pentane): less than 1.7
CCOC(=O)CC(C)C [Ethyl isovalerate]	1.5	2.5	–
COCCO [Ethylene glycol methyl ether]	–	–	Relative Volatility [1]: 3.6
CC1=CC(=O)CC(C)(C)C1 [Isophorone]	1.5	2.8	–
CCOC(C)=O [Ethyl acetate]	1.8	2.9	–
C1CCCC1 [Cyclopentane]	–	–	Relative Volatility [4]: 1.55; Relative Volatility ([4]; listed as cyclopentane): less than 1.7
